The target of this test is T1, human serum albumin (HSA) (Homo sapiens, UniProt P02768).
T1 construct: gene ALB; full-length, fatty acid and globulin-free HSA purified from serum
The test is described as follows: ITC ([…]°C, pH […]), two sets of independent sites; confirmed by 1H NMR chemical shift titration (Kd1 […]). It is filed as binding.

The Kd is the concentration at which binding is half-saturated.

T1 sequence (P02768 25-609): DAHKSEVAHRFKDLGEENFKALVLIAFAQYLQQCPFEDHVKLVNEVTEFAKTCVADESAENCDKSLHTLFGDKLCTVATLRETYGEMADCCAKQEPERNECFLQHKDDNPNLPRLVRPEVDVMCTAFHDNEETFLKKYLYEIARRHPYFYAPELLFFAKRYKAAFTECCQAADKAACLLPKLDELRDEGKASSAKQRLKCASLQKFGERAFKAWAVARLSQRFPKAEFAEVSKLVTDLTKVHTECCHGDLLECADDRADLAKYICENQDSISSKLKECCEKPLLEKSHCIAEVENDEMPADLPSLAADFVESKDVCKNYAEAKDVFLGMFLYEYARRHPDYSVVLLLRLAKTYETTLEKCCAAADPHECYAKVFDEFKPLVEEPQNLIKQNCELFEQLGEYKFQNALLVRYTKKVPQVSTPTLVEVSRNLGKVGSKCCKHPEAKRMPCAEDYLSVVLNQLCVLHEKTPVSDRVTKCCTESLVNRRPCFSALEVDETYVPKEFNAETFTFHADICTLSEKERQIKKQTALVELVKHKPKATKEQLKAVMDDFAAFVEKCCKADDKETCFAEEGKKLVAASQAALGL

Take `O=C(O[C@@H]1Cc2c(O)cc(O)cc2O[C@@H]1c1cc(O)c(O)c(O)c1)c1cc(O)c(O)c(O)c1` [epigallocatechin gallate]: the Kd amounted to 22 ± 4 µM.

These data come from PMC5484023, “Multi-site binding of epigallocatechin gallate to human serum albumin measured by NMR and isothermal titration calorimetry” (Bioscience Reports, 2017).
